Experimental data published in patent US20250215052A1, “INHIBITORS OF PICK1 AND USES THEREOF” (University of Copenhagen, priority 2018, published 2025).
pKi: −log10 of the molar value.

Assays:
PICK1 = target: T1, PICK1 (Rattus norvegicus, UniProt Q9EP80); test: biochemical; format: binding; settings: for Fold affinity change: compared to TAT-P4-(C5)2
T1 construct: made in house; host or cells: E. coli BL21-DE3-pLysS
Protocol: The data was plotted in GraphPad Prism 7.0 and fitted to a ‘One site-Fit’ Ki curve and the apparent affinities (Ki) for the unlabelled peptides were determined using correction for depletion.

[1] = FPLC size exclusion chromatography of CPP variants in PBS; format: physicochemical; settings: Superdex 200 Increase 10/300, relative to P4-(C5)2
Protocol: All samples were run in a 200 μL volume on a Superdex 200 Increase 10/300 column on an AKTA purifier FPLC system. The absorbance at 280 nm as a function of elution volume was normalized to the maximal absorbance of each peptide and plotted using GraphPadPrism 7.0.

SNI mice [2] = test: SNI neuropathic pain model, subcutaneous administration, Von Frey; format: in vivo; settings: 10 μmol/kg s.c.
Protocol: Mice: 8 weeks old C57BI6J mice (from Charles River)
10 μmol/kg peptide solution was subcutaneously administered (100 μL/10 g).
Spared Nerved Injury surgery: The surgery was performed on anaesthetized mice. A complete ligature and transection of the common peroneal and tibial distal branches of the sciatic nerve was performed, leaving the sural branch intact. The operated side is referred to as the ipsilateral side and the non-operated side is referred to as the contralateral side. 7 days post-surgery, a decrease of threshold response to Von Frey filaments of ipsilateral hind paw was observed.
Mechanical threshold response: The mechanical threshold response of the operated mice was measured with calibrated Von Frey filaments using up/down method, and the 50% threshold (g) was calculated (see equation 1). Mechanical pain responses are defined as paw withdrawal, flinching and/or paw licking following filament prick. The experimenter was blinded to mice treatment. One baseline measure was performed before surgery, one measure 7 days after surgery (D+7) before drug's administration. One measure was performed 1 h, 2 h, 3 h and 4 h post drug administration. n=8 mice/timepoint for peptide treatment.
Statistical analysis: Statistical analysis was performed using Graphpad Prism 7.0. Pain threshold, measured as paw withdrawal threshold, was compared between time “before drug effect” and time points after drug administration (+1, +2, +3, +4 hrs), or against vehicle control (all time points). Two-way RM ANOVA followed by Dunnet's multiple comparison tests. Significance level set to p<0.05.

PICK1 PDZ domain = target: T2, PICK1 PDZ domain (Rattus norvegicus, UniProt Q9EP80); test: Fluorescence polarization competition binding to PICK1 (Example 1); settings: PEGx dimerization of C5
T2 construct: made in house; host or cells: E. coli BL21-DE3-pLysS
T2 sequence (Q9EP80 whole entry, the tested form may be a part): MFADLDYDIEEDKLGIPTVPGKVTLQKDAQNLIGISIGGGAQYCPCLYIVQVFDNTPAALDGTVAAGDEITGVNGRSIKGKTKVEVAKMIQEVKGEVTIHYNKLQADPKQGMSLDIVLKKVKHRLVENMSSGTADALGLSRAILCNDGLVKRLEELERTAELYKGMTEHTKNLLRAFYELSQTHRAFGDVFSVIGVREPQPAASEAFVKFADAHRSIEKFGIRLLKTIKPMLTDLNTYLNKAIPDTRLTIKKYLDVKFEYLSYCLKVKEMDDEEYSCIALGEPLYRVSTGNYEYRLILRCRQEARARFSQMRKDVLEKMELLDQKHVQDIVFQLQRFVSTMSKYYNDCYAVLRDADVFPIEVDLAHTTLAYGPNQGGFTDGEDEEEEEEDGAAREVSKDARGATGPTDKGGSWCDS
Protocol: Protein expression was induced with 10 mM Isopropyl β-D-1-thiogalactopyranoside (IPTG) and grown overnight at 20° C. […] Resuspended pellet was frozen at −80° C. to induce cell lysis. The bacterial suspension was thawed and cleared by centrifugation. The supernatant was collected and incubated with Glutathione-Sepharose 4B beads for 2 hrs at 4° C. under gentle rotation. […] Washed beads were transferred to a PD10 gravity column. Bead solution was incubated with thrombin protease overnight at 4° C. under gentle rotation.
Fluorescence polarization was carried out in saturation mode and competition mode.

Plasma stability = format: in vitro ADME; settings: human, 37° C., 24 h incubation
Protocol: (§1) 360 μL undiluted human male serum (Sigma; H4522) or PBS was kept at 37° C. for 15 min, followed by addition of 40 μL (500 uM) of relevant peptide and subsequent incubation at 37° C. For stability analysis, 45 μL samples was taken out at t=0 min and t=24 hrs, and samples quenched by addition of 50 μL 6M urea followed by incubation at 37° C. for additional 30 min. 50 μL 20% TCA (W7V) in acetone was added to each sample before incubation for at least 16 hrs at 5° C. Samples were centrifuged at 14.000×g for 30 min and supernatants collected and filtered using a 0.22 μm syringe filter. Samples were analyzed on an Acquity UPLC H-Class instrument using a C18 column with a 15 min 10-80% […] gradient. Remaining analyte (%) was calculated as the area under curve (AUC) of the main peak at indicated time points relative to the sample at t=0 min.

PBS stability = format: physicochemical; settings: 37° C., 24 hrs
Protocol: as §1

SNI mice [3] = test: Spared nerve injury (SNI) model, Von Frey test, intrathecal or i.p. administration; format: in vivo
Protocol: Spared nerve injury model (SNI) was performed according to methods described in Richner et al., 2011. Briefly, under isoflurane (2%) anaesthesia, the skin on the left lateral surface of the thigh was incised and the biceps femoris muscle was divided and spread lengthwise to expose the three branches of the sciatic nerve. After exposing the three branches (common peroneal, tibial and sural) in anesthetized mice, the common peroneal and tibial branches were carefully segregated from surrounding tissues, tightly ligated and axotomized ˜2 mm of the distal nerve stump, while the sural branch was left intact.
Drugs were administered either intrathecally to anesthetized mice or intraperitoneally (i.p.).
The development and level of mechanical threshold was determined in the affected hind paws 2 days after the SNI procedure by using Von Frey filaments ranging from 0.02 to 1.4 g. In the current experiments filaments in ascending order were applied to the lateral part of the hind paws. Each Von Frey hair was applied five times over a total period of 30 seconds and the mouse's reaction was assessed after each application; the threshold for a positive test was set at 3 trials, which evoked responses out of a maximum of 5 trials. […] Forces of the instrument are measured with units “g” and represent the gram-forces. […]

[4] = target: T3, PICK1 pre-bound to TacDAT C24 (Rattus norvegicus, UniProt Q9EP80); test: SCMS dissociation of pre-bound PICK1; format: binding; settings: pre-bound PICK1 on TacDAT C24 SCMS
T3 construct: Partner: transfected HEK293-GT cells, ruptured into membrane sheets
T3 sequence (Q9EP80 whole entry): as the sequence (Q9EP80 whole entry, the tested form may be a part) above
Protocol: Human Embryo Kidney 293 GripTite cells (HEK293-GT) for SCMS were grown i in Dulbecco's modified Eagle's medium 1965 with fetal calf serum and pen-strep antibiotics. Cells were transfected using TAC-YFP-DATC24 DNA (pEYFP-C1 vector) and lipovectamin in opti-MEM® overnight. Cells were washed once with PBS and detached using 0.5% Trypsin with EDTA. Cells were then seeded into 6-well plates and allowed to grow and attach overnight at 37° C. in humidified 10% CO2 atmosphere.
The SCMS was prepared as described in (Perez et al., 2006). In brief, round cover glasses were plasma cleaned and coated with 0.3 mM poly-L-ornithine hydrobromide (Poly-ORN) for 30 min. The coating Poly-ORN was then removed. Seeded and transfected cells were then washed twice to allow them to swell. The swelled cells were then covered with the cover glass with the Poly-ORN coated side facing down on the cells. Dynamic pressure was manually applied to the cover glass using the piston from a 12 ml plastic syringe for a total of 1 min. The force from removing the cover glass causes some cells to rupture and leave a SCMS on the surface of the cover glass. […] A protein solution was then added to the cover glass and left to incubate for the desired amount of time depending on the experiment. […] The protein: peptide solution was then added to the SCMS-cover glass and incubated for 2 hours. […]

T1 sequence (Q9EP80 whole entry): as the sequence (Q9EP80 whole entry, the tested form may be a part) above

CC(C)C[C@H](NC(=O)[C@H](C)NC(=O)[C@H](CCCCN)NC(=O)[C@H](CC(C)C)NC(=O)[C@H](C)NC(=O)[C@H](CC(C)C)NC(=O)[C@H](CCCCN)NC(=O)[C@H](CC(C)C)NC(=O)[C@H](C)NC(=O)[C@H](CC(C)C)NC(=O)[C@@H](N)CCCCN)C(=O)N[C@@H](CCCCN)C(=O)N[C@@H](C)C(=O)N[C@@H](C)C(=O)N[C@@H](CC(C)C)C(=O)N[C@@H](CCCCN)C(=O)N[C@@H](CC(C)C)C(=O)N[C@@H](C)C(=O)N(CCOCCOCCC(=O)N[C@@H](Cc1c[nH]cn1)C(=O)N[C@@H](Cc1c[nH]c2ccccc12)C(=O)N[C@@H](CC(C)C)C(=O)N[C@@H](CCCCN)C(=O)N[C@H](C(=O)O)C(C)C)CCOCCOCCC(=O)N[C@@H](Cc1c[nH]cn1)C(=O)N[C@@H](Cc1c[nH]c2ccccc12)C(=O)N[C@@H](CC(C)C)C(=O)N[C@@H](CCCCN)C(=O)N[C@H](C(=O)O)C(C)C [MAP-P4-(C5)2]
pKi (PICK1): 8.29 | Fold affinity change (PICK1): 0.8 fold | in-solution oligomeric behavior from elution volume [1]: forms higher oligomeric structures than P4-(C5)2 | ipsilateral paw mechanical threshold compared to before drug administration (SNI mice [2]; 1 h): significant increase | ipsilateral paw mechanical threshold compared to before drug administration (SNI mice [2]; 2 h): significant increase | ipsilateral paw mechanical threshold compared to vehicle (SNI mice [2]; 2 h): significant increase

CC(C)C[C@H](NC(=O)[C@H](Cc1c[nH]c2ccccc12)NC(=O)[C@H](Cc1c[nH]cn1)NC(=O)CCOCCOCCOCCOCCOCCC(=O)N[C@@H](Cc1c[nH]cn1)C(=O)N[C@@H](Cc1c[nH]c2ccccc12)C(=O)N[C@@H](CC(C)C)C(=O)N[C@@H](CCCCN)C(=O)N[C@H](C(=O)O)C(C)C)C(=O)N[C@@H](CCCCN)C(=O)N[C@H](C(=O)O)C(C)C [P4-(C5)2, PEG4-(HWLKV)2]
fold increase in affinity compared to monomeric C5 (PICK1 PDZ domain): 15 fold

CC(C)C[C@H](NC(=O)[C@H](Cc1c[nH]c2ccccc12)NC(=O)[C@H](Cc1cnc[nH]1)NC(=O)[C@H](CCCNC(=N)N)NC(=O)[C@H](CCCNC(=N)N)NC(=O)[C@H](CCCNC(=N)N)NC(=O)[C@H](CCC(N)=O)NC(=O)[C@H](CCCNC(=N)N)NC(=O)[C@H](CCCNC(=N)N)NC(=O)[C@H](CCCCN)NC(=O)[C@H](CCCCN)NC(=O)[C@H](CCCNC(=N)N)NC(=O)CNC(=O)[C@@H](N)Cc1ccc(O)cc1)C(=O)N[C@@H](CCCCN)C(=O)N[C@H](C(=O)O)C(C)C [TAT-C5]
plasma stability (Plasma stability): improved | stability in PBS (PBS stability): good stability in PBS

NCC1(CC(=O)O)CCCCC1 [gabapentin]
mechanical hypersensitivity, chronic phase (SNI mice [3]; 30 mg/kg i.p., day 14 after surgery, at 2 hours): full recovery from mechanical hypersensitivity

CC[C@H](C)[C@H](NC(=O)[C@H](CCCCN)NC(=O)[C@@H](NC(=O)[C@H](CCC(N)=O)NC(=O)[C@@H](N)CCCNC(=N)N)[C@@H](C)CC)C(=O)N[C@@H](Cc1c[nH]c2ccccc12)C(=O)N[C@@H](Cc1ccccc1)C(=O)N[C@@H](CCC(N)=O)C(=O)N[C@@H](CC(N)=O)C(=O)N[C@@H](CCCNC(=N)N)C(=O)N[C@@H](CCCNC(=N)N)C(=O)N[C@@H](CCSC)C(=O)N[C@@H](CCCCN)C(=O)N[C@@H](Cc1c[nH]c2ccccc12)C(=O)N[C@@H](CCCCN)C(=O)N[C@@H](CCCCN)C(=O)N(CCOCCOCCC(=O)N[C@@H](Cc1c[nH]cn1)C(=O)N[C@@H](Cc1c[nH]c2ccccc12)C(=O)N[C@@H](CC(C)C)C(=O)N[C@@H](CCCCN)C(=O)N[C@H](C(=O)O)C(C)C)CCOCCOCCC(=O)N[C@@H](Cc1c[nH]cn1)C(=O)N[C@@H](Cc1c[nH]c2ccccc12)C(=O)N[C@@H](CC(C)C)C(=O)N[C@@H](CCCCN)C(=O)N[C@H](C(=O)O)C(C)C [PNT-P4-(C5)2]
in-solution oligomeric behavior from elution volume [1]: smaller oligomers than P4-(C5)2 or direct interaction with the column material | ipsilateral paw mechanical threshold compared to before drug administration (SNI mice [2]; any time-point): did not show significant increase | ipsilateral paw mechanical threshold compared to vehicle (SNI mice [2]; any time-point): no significant increase

CC(C)C[C@H](NC(=O)[C@H](Cc1c[nH]c2ccccc12)NC(=O)[C@@H](N)Cc1cnc[nH]1)C(=O)N[C@@H](CCCCN)C(=O)N[C@H](C(=O)O)C(C)C [C5, HWLKV]
dissociation of pre-bound PICK1 from SCMSs [4]: neither C5 nor TAT-(C5) could significantly dissociated PICK1 from SCMSs | plasma stability (Plasma stability): full degradation | stability in PBS (PBS stability): good stability in PBS

CC[C@H](C)[C@H](NC(=O)[C@H](CCCCN)NC(=O)CNC(=O)[C@H](CC(C)C)NC(=O)[C@H](CC(C)C)NC(=O)[C@H](Cc1ccc(O)cc1)NC(=O)CNC(=O)[C@H](C)NC(=O)[C@H](CO)NC(=O)[C@H](CC(N)=O)NC(=O)[C@H](CC(C)C)NC(=O)[C@@H](NC(=O)[C@H](Cc1c[nH]c2ccccc12)NC(=O)CN)[C@@H](C)O)C(=O)N[C@@H](CC(N)=O)C(=O)N[C@@H](CC(C)C)C(=O)N[C@@H](CCCCN)C(=O)N[C@@H](C)C(=O)N[C@@H](CC(C)C)C(=O)N[C@@H](C)C(=O)N[C@@H](C)C(=O)N[C@@H](CC(C)C)C(=O)N[C@@H](C)C(=O)N[C@@H](CCCCN)C(=O)N[C@@H](CCCCN)C(=O)N[C@H](C(=O)N[C@@H](CC(C)C)C(=O)N(CCOCCOCCC(=O)N[C@@H](Cc1c[nH]cn1)C(=O)N[C@@H](Cc1c[nH]c2ccccc12)C(=O)N[C@@H](CC(C)C)C(=O)N[C@@H](CCCCN)C(=O)N[C@H](C(=O)O)C(C)C)CCOCCOCCC(=O)N[C@@H](Cc1c[nH]cn1)C(=O)N[C@@H](Cc1c[nH]c2ccccc12)C(=O)N[C@@H](CC(C)C)C(=O)N[C@@H](CCCCN)C(=O)N[C@H](C(=O)O)C(C)C)[C@@H](C)CC [TP10-P4-(C5)2]
Fold affinity change (PICK1): 0.5 fold | in-solution oligomeric behavior from elution volume [1]: smaller oligomers than P4-(C5)2 or direct interaction with the column material | ipsilateral paw mechanical threshold compared to before drug administration (SNI mice [2]; 2 h): significant increase | ipsilateral paw mechanical threshold compared to vehicle (SNI mice [2]; 2 h): significant increase

CCOC(=O)NC(=O)/C(C#N)=C/c1ccc(Cl)c(Cl)c1 [FSC231]
mechanical hypersensitivity / withdrawal threshold, acute phase (SNI mice [3]; intrathecal, two days after operation): did not affect withdrawal threshold
